Measured values published in patent publication US20240208963A1, “CRYSTALLINE MELANOCORTIN SUBTYPE-2 RECEPTOR (MC2R) ANTAGONIST” (Crinetics Pharmaceuticals, Inc., priority 2022, published 2024).
Read-outs that look alike come from different tables or passages of the source.

Columns and labels:
[1] = Form stability at ambient conditions for one week (XRPD); assay type: physicochemical; conditions: listed as Pattern C, maleate
Excerpt: Some of the samples generated in the antisolvent crystallization experiments were mixtures of Pattern B, Pattern C, and Pattern D. These samples were left at ambient conditions for one week, then analyzed again by XRPD.
Pure Pattern B was generated in the antisolvent crystallization with MIBK and heptane. […] The solids were scraped from the XRPD plate and used for simultaneous TGA/DSC analysis. […] After the solids required for the TGA/DSC analysis were transferred to the pan, the remainder of the solids were re-pressed to the XRPD sample plate and analyzed again.

[2] = Solubility in simulated fluids and water; assay type: physicochemical; conditions: 37° C.
Experimental: Calibration samples for solubility in simulated fluids were prepared with freebase Compound I.
Solubility in simulated fluids were studied with the mandelate and maleate solids. The simulated fluids FaSSIF (fasted-state intestinal), FaSSGF (fasted-state gastric), and FeSSIF (fed-state intestinal) were removed from the refrigerator, warmed to room temperature, and the pH of each was measured. Between 1.9 and 2.0 mg of each salt was weighed into four vials and 1 mL of each fluid was added, including water. Stir bars (10 mm) were added to the vials and the vials were stirred at 37° C. After 30 mi (mandelate samples) or 1 h (maleate samples), the pH of each solution was measured, then 400 μL of each was removed and syringe filtered with 0.45 µm syringe filters. Approximately 300 μL of the recovered filtrate was diluted 5× with diluent and injected for HPLC analysis. The remainder of the samples in the vials were allowed to stir overnight. After 24 h stirring at 37° C., samples were filtered and diluted as before, and injected for analysis.

[3] = Dynamic vapor sorption (DVS); assay type: physicochemical
Experimental: DVS was performed using a DVS Intrinsic 1. The sample (20-25 mg) was loaded into a sample pan, suspended from a microbalance and exposed to a humidified stream of nitrogen gas. The sample was held for a minimum of 5 min at each level and only progressed to the next humidity level if there was <0.002% change in weight between measurements (interval: 60 s) or 240 min had elapsed. The following program was used: • 1. Equilibration at 50% RH • 2. 50% to 2%. (50%, 40%, 30%, 20%, 10%, and 2%) • 3. 2% to 95% (2%, 10%, 20%, 30%, 40%, 50%, 60%, 70%, 80%, 90%, and 95%) • 4. 95% to 2% (95%, 80%, 70%, 60%, 50%, 40%, 30%, 20%, 10%, and 2%) • 5. 2% to 50% (2%, 10%, 20%, 30%, 40%, and 50%)

[4] = Solubility of solid state forms in solvents (gravimetric or solvent addition); assay type: physicochemical; conditions: for solubility: thermodynamic from solid, read-out: Solubility
Experimental: The solubility of certain solid state forms of Compound I was determined in various solvents by either gravimetric solubility or solvent addition.
About 25 mg of compound was weighed into vials. Approximately 5 vol. (0.125 mL) of solvent was added to the solids and the mixtures stirred at the designated temperature (RT or 50° C.). Solutions were noted and an additional 0.125 mL of solvent was added to the slurries. […] If a thicker slurry was noted, 0.25 mL of solvent was added (total volume 0.5 mL). If a thick slurry was again noted, an additional 0.25 mL of solvent was added (total volume 0.75 mL). After stirring for 2 days, the slurries were centrifuged, the supernatant was collected into preweighed vials, and the solvent evaporated at 50° C. (ambient pressure) without stirring. The vials containing the solid residues were dried in a vacuum oven at 50 C, 10^−2-10^−1 Torr, for 3 h before weighing again to determine the mass of solid that was dissolved in the supernatant (i.e. mg solid/mL solvent).
About 20 mg of compound was weighed into vials. Solvent was added in aliquots and stirred at the designated temperature until complete dissolution was observed. This measurement gave a solubility range.

[5] = Salt screening XRPD stages: drying and overnight humidity exposure; conditions: >95% relative humidity overnight
Experimental: XRPD analysis is typically done in three stages: 1) Wet: XRPD of the wet cake is done for all samples whenever solids appropriate for sampling were observed. 2) Dry: Unique solids are then left on XRPD plates and dried under vacuum at 50° C. for at least 3 h. XRPD of unique dry solids are then collected. 3) Humid: Solids are then exposed to >95% relative humidity overnight and XRPD on resulting solids is collected. The humid environment is generated by placing a beaker of saturated potassium sulfate in water in a sealed container. This procedure is not carried out for any amorphous solids obtained. All XRPD patterns are compared to counter ion XRPD patterns and known free molecule patterns.
A qualitive humidity exposure test was performed by exposing approximately 10 mg of the maleate to 80% RH overnight.

[6] = Stability of crystalline forms at 40° C. and 75% relative humidity (XRPD, HPLC purity); conditions: for Change by XRPD after storage / Degradation by HPLC purity analysis after storage: 40° C., 75% relative humidity
Experimental: Approximately 10 mg of the Crystalline Pattern D of Compound I Maleate, 20 mg of the Crystalline Pattern C of Compound I Maleate, and 10 mg of the Crystalline Pattern E of Compound I Mandelate were weighed into open 4 mL vials that were placed into a 20 mL vial containing a saturated NaCl solution. The vial was sealed and kept at 40° C. for 7 days, creating an atmosphere at 75% relative humidity in the system. After 7 days, the materials were sampled and plated for XRPD analysis.
The stability test was repeated on Patterns C and D of Compound I Maleate for 11 days.

CCOc1ccccc1-c1ccc(N2CCN(C(=O)C3(C(F)(F)F)CCC3)C[C@H]2CC)c(C(=O)N[C@@H]2CN3CCC2CC3)n1.O=C(O)/C=C\C(=O)O [Pattern C Maleate, N-[(3S)-1-azabicyclo[2.2.2]octan-3-yl]-6-(2-ethoxyphenyl)-3-[(2R)-2-ethyl-4-[1-(trifluoromethyl)-cyclobutanecarbonyl]piperazin-1-yl]pyridine-2-carboxamide maleate]
Form conversion by XRPD at ambient conditions [1]: no observable conversion
solubility at 1 h ([2]; FaSSGF (fasted-state simulated gastric fluid), pH 1.49, fassgf or other biorelevant, thermodynamic from solid, FaSSGF, 1 h): < 2.5 mg/mL
solubility at 24 h ([2]; FaSSGF (fasted-state simulated gastric fluid), pH 1.49, fassgf or other biorelevant, thermodynamic from solid, FaSSGF, 24 h): > 2.5 mg/mL
Sample pH ([2]; FaSSGF (initial pH 1.49), 1 h): 4.66
Sample pH ([2]; FaSSGF (initial pH 1.49), 24 h): 5.08
solubility at 24 h ([2]; FaSSIF (fasted-state simulated intestinal fluid), pH 6.35, thermodynamic from solid, FaSSIF, 24 h): 1.41 mg/mL
solubility at 1 h ([2]; FaSSIF (fasted-state simulated intestinal fluid), thermodynamic from solid, FaSSIF, 1 h): 1.24 mg/mL
Sample pH ([2]; FaSSIF (initial pH 6.35), 1 h): 6.23
Sample pH ([2]; FaSSIF (initial pH 6.35), 24 h): 6.98
Solids recovered from the solubility experiment (appearance, XRPD) ([2]; FaSSIF, after 24 h): oily and appeared as amorphous
solubility at 1 h ([2]; FeSSIF (fed-state simulated intestinal fluid), pH 4.83, thermodynamic from solid, FeSSIF, 1 h): > 2.5 mg/mL
solubility at 24 h ([2]; FeSSIF (fed-state simulated intestinal fluid), pH 4.83, thermodynamic from solid, FeSSIF, 24 h): > 2.5 mg/mL
Sample pH ([2]; FeSSIF (initial pH 4.83), 1 h): 1.50
Sample pH ([2]; FeSSIF (initial pH 4.83), 24 h): 1.89
solubility at 1 h ([2]; thermodynamic from solid, water, 1 h): > 2.5 mg/mL
solubility at 24 h ([2]; thermodynamic from solid, water, 24 h): > 2.5 mg/mL
Sample pH ([2]; water, 1 h): ~6.35
Sample pH ([2]; water, 24 h): 5.50
Hygroscopicity (in words) ([3]; DVS): moderately hygroscopic
Change by XRPD following the DVS analysis ([3]; after DVS from 2 to 95% RH): Slight changes
Reversible mass gain (DVS) ([3]; from 2 to 95% relative humidity): 9.18 wt. %
Behaviour at high humidity ([3]; high humidity): began to convert to amorphous
Solubility (in words) ([4]; MeOH, EtOH, acetone, THF, ACN, MEK, DMSO, and water containing systems at 8:2 vol. water:organic): freely soluble
solubility ([4]; aqueous with cosolvent or surfactant or cyclodextrin, ACN:water (2:8 vol.), RT): > 200 mg/mL
solubility ([4]; aqueous with cosolvent or surfactant or cyclodextrin, IPA:water (2:8 vol.), RT): > 200 mg/mL
solubility ([4]; aqueous with cosolvent or surfactant or cyclodextrin, acetone:water (2:8 vol.), RT): > 200 mg/mL
solubility ([4]; organic solvent or mixture, ACN, RT): > 200 mg/mL
solubility ([4]; organic solvent or mixture, DMSO, RT): > 200 mg/mL
solubility ([4]; organic solvent or mixture, EtOAc, 50° C.): 34 mg/mL
solubility ([4]; organic solvent or mixture, EtOAc, RT): 21 mg/mL
solubility ([4]; organic solvent or mixture, EtOH, RT): > 200 mg/mL
solubility ([4]; organic solvent or mixture, IPA, 50° C.): > 500 mg/mL
solubility ([4]; organic solvent or mixture, IPA, RT): > 200 mg/mL
solubility ([4]; organic solvent or mixture, IPA:MtBE (1:1 vol.), 50° C.): 36 to 43 mg/mL
solubility ([4]; organic solvent or mixture, IPA:heptane (1:1 vol.), 50° C.): 16 to 19 mg/mL
solubility ([4]; organic solvent or mixture, IPAc, 50° C.): 13 mg/mL
solubility ([4]; organic solvent or mixture, IPAc, RT): 8 mg/mL
solubility ([4]; organic solvent or mixture, MEK, RT): > 200 mg/mL
solubility ([4]; organic solvent or mixture, MIBK, 50° C.): 71 mg/mL
solubility ([4]; organic solvent or mixture, MIBK, RT): 49 mg/mL
solubility ([4]; organic solvent or mixture, MeOAc, 50° C.): > 500 mg/mL
solubility ([4]; organic solvent or mixture, MeOAc, RT): > 200 mg/mL
solubility ([4]; organic solvent or mixture, MeOAc:IPAc (1:1 vol.), 50° C.): 37 to 45 mg/mL
solubility ([4]; organic solvent or mixture, MeOH, RT): > 200 mg/mL
solubility ([4]; organic solvent or mixture, MtBE, 50° C.): 4 mg/mL
solubility ([4]; organic solvent or mixture, MtBE, RT): 4 mg/mL
solubility ([4]; organic solvent or mixture, THF, RT): > 200 mg/mL
solubility ([4]; organic solvent or mixture, acetone, RT): > 200 mg/mL
solubility ([4]; organic solvent or mixture, acetone:heptane (1:1 vol.), 50° C.): 31 to 37 mg/mL
solubility ([4]; organic solvent or mixture, chloroform, RT): > 200 mg/mL
solubility ([4]; organic solvent or mixture, cyclohexane, 50° C.): 3 mg/mL
solubility ([4]; organic solvent or mixture, cyclohexane, RT): < 3 mg/mL
solubility ([4]; organic solvent or mixture, n-heptane, 50° C.): 3 mg/mL
solubility ([4]; organic solvent or mixture, n-heptane, RT): < 3 mg/mL
solubility ([4]; organic solvent or mixture, toluene, 50° C.): 7 mg/mL
solubility ([4]; organic solvent or mixture, toluene, RT): < 3 mg/mL
Behaviour in solvent (in words) ([4]; water and 95:5 vol. water:organic systems): Gels/gums were generated
Stability after humidity exposure (XRPD, deliquescence) [5]: stable with no observed deliquescence
Change by XRPD after storage ([6]; 7 days): No visible change
Degradation by HPLC purity analysis after storage ([6]; 7 days): no degradation
Change by XRPD after storage ([6]; 11 days): No visible change
Degradation by HPLC purity analysis after storage ([6]; 11 days): no degradation
Stability on storage (in words) ([6]; over a week at 40° C. and 75% RH): stable
